# Assay results from US10501464B2, “7-oxo-6-(sulfooxy)-1,6-diazabicyclo[3.2.1]octane-2-carboxamide containing compounds and their use in treating bacterial infections” (WOCKHARDT LIMITED, priority 2015, dated 2019).
# Where two headings read alike, the source gives them in different places.
# Legend:
# Test in all cases: Antibacterial activity, MIC by agar dilution (CLSI)
# Format in all cases: cell-based
# E. coli 13351 = settings: compound tested alone
# Description: (§1) The biological activity of representative compounds according to the invention against various bacterial strains was investigated. In a typical study, overnight grown bacterial cultures were diluted appropriately and inoculated on the agar media containing doubling dilutions of the test compounds. Observations for growth or no growth was performed after 16-20 hours of incubation at 35±2° C. in the ambient air. The overall procedure was performed as per Clinical and Laboratory Standards Institute (CLSI) recommendations, (Clinical and Laboratory Standards Institute (CLSI), Performance Standards for Antimicrobial Susceptibility Testing, 20th Informational Supplement, M07-A9, Volume 32, No. 2, 2012). Molten Mueller Hinton Agar (BD, USA) containing serial dilutions of each antibacterial agent were poured on to the plates and allowed to solidify. Appropriate suspensions from the freshly grown cultures were prepared in normal saline so that about 10^4CFU/spot of the organism was delivered on to the drug containing agar plates using automated multipoint inoculator (Mast, UK). The plates were incubated in Biochemical oxygen demand (BOD) incubator at 37° C. for 18 hours and then examined for growth.
# (§2) Method for the determination of MIC: The Minimum Inhibitory Concentration (MIC) determination for the combinations was carried out in Muller Hinton Agar (MHA) (BD, USA) according to Clinical and Laboratory Standards Institute (CLSI) recommendations, (Clinical and Laboratory Standards Institute (CLSI), Performance Standards for Antimicrobial Susceptibility Testing, 20th Informational Supplement, M 100-S20, Volume 30, No. 1, 2010). In short, the test strains were adjusted to deliver about 10^4CFU per spot with a multipoint inoculator (Applied Quality Services, UK). The plates were poured with MHA containing doubling concentration range of representative compounds according to present invention. The plates were inoculated and were incubated at 35° C. for 18 hour. […] The Table 2 depicts the antibacterial activity profile of compounds according to present invention against various multidrug resistant bacterial strains.
# K. pneumoniae H 522 = settings: compound tested alone
# Description: as §1, §2
# E. coli M 50 = settings: compound tested alone
# Description: as §1, §2
# E. coli M 138 = settings: compound tested alone
# Description: as §1, §2
# E. coli 13352 = settings: compound tested alone
# Description: as §1, §2
# E. coli 7 MP = settings: compound tested alone
# Description: as §1, §2
# P. mirabilis S 137B = settings: compound tested alone
# Description: as §1, §2
# [1] = test system: K. pneumoniae ATCC 700603
# Description: as §1, §2
# E. coli 13353 = settings: compound tested alone
# Description: as §1, §2
# K. pneumoniae H 523 = settings: compound tested alone
# Description: as §1, §2
# E. coli M 49 = settings: compound tested alone
# Description: as §1, §2
# E. coli H 483 = test system: E. coli H 483
# Description: as §1, §2
# E. coli M 36 = settings: compound tested alone
# Description: as §1, §2
# K. pneumoniae H 521 = settings: compound tested alone
# Description: as §1, §2
# K. pneumoniae H 525 = settings: compound tested alone
# Description: as §1, §2
# [2] = Escherichia coli, 13351, E. coli 13351, read-out: MIC
# [3] = Klebsiella pneumoniae, H522, K. pneumoniae H 522, read-out: MIC
# [4] = Escherichia coli, M50, E. coli M 50, read-out: MIC
# [5] = Escherichia coli, M138, E. coli M 138, read-out: MIC
# [6] = Escherichia coli, 13352, E. coli 13352, read-out: MIC
# [7] = Escherichia coli, 7MP, read-out: MIC
# [8] = Proteus mirabilis, S137B, read-out: MIC
# [9] = Klebsiella pneumoniae, ATCC700603, compound tested alone, read-out: MIC
# [10] = Escherichia coli, 13353, E. coli 13353, read-out: MIC
# [11] = Klebsiella pneumoniae, H523, K. pneumoniae H 523, read-out: MIC
# [12] = Escherichia coli, M49, E. coli M 49, read-out: MIC
# [13] = Escherichia coli, H483, compound tested alone, read-out: MIC
# [14] = Escherichia coli, M36, E. coli M 36, read-out: MIC
# [15] = Klebsiella pneumoniae, H521, K. pneumoniae H 521, read-out: MIC
# [16] = Klebsiella pneumoniae, H525, K. pneumoniae H 525, read-out: MIC
SMILES,MIC (E. coli 13351; [2]) [µg/mL],MIC (K. pneumoniae H 522; [3]) [µg/mL],MIC (E. coli M 50; [4]) [µg/mL],MIC (E. coli M 138; [5]) [µg/mL],MIC (E. coli 13352; [6]) [µg/mL],MIC (E. coli 7 MP; [7]) [µg/mL],MIC (P. mirabilis S 137B; [8]) [µg/mL],"MIC [1, 9] [µg/mL]",MIC (E. coli 13353; [10]) [µg/mL],MIC (K. pneumoniae H 523; [11]) [µg/mL],MIC (E. coli M 49; [12]) [µg/mL],MIC (E. coli H 483; [13]) [µg/mL],MIC (E. coli M 36; [14]) [µg/mL],MIC (K. pneumoniae H 521; [15]) [µg/mL],MIC (K. pneumoniae H 525; [16]) [µg/mL],other results
"CC(C)(O/N=C(\C(=O)N[C@@H]1C(=O)N2C(C(=O)[O-])=C(C[n+]3ccccc3)CS[C@H]12)c1csc(N)n1)C(=O)O [Ceftazidime, reference compound]",–,–,–,–,–,–,–,–,–,–,–,–,–,–,–,MIC (E. coli 13351; E. coli 13351): 16 µg/mL; MIC (K. pneumoniae H 522; K. pneumoniae H 522): >32 µg/mL; MIC (E. coli M 50; E. coli M 50): >32 µg/mL; MIC (E. coli M 138; E. coli M 138): >32 µg/mL; MIC (E. coli 13352; E. coli 13352): >32 µg/mL; MIC (E. coli 7 MP): >32 µg/mL; MIC (P. mirabilis S 137B): >32 µg/mL; MIC ([1]; compound tested alone): 16 µg/mL; MIC (E. coli 13353; E. coli 13353): >32 µg/mL; MIC (K. pneumoniae H 523; K. pneumoniae H 523): >32 µg/mL; MIC (E. coli M 49; E. coli M 49): >32 µg/mL; MIC (E. coli H 483; compound tested alone): >32 µg/mL; MIC (E. coli M 36; E. coli M 36): >32 µg/mL; MIC (K. pneumoniae H 521; K. pneumoniae H 521): >32 µg/mL; MIC (K. pneumoniae H 525; K. pneumoniae H 525): >32 µg/mL
O=C(NOC[C@@H]1C[C@H](n2cnnn2)CN1)[C@@H]1CC[C@@H]2CN1C(=O)N2OS(=O)(=O)O [Example 4],4,4,2,2,2,4,> 32,> 32,2,4,8,> 32,2,4,4,–
O=C(NOC[C@@H]1C[C@H](n2ccnc2)CN1)[C@@H]1CC[C@@H]2CN1C(=O)N2OS(=O)(=O)O [Example 10],2,2,1,1,2,4,> 32,> 32,1,2,4,> 32,1,2,2,–
O=C(NOC[C@H]1C[C@H](n2ncnn2)CN1)[C@@H]1CC[C@@H]2CN1C(=O)N2OS(=O)(=O)O [Example 11],4,4,2,2,2,8,> 32,> 32,2,4,16,> 32,2,4,2,–
O=C(NOC[C@H]1C[C@H](n2cnnn2)CN1)[C@@H]1CC[C@@H]2CN1C(=O)N2OS(=O)(=O)O [Example 12],4,4,2,2,2,8,> 32,> 32,2,4,16,> 32,2,4,4,–
O=C(NOC[C@H]1C[C@H](n2nccn2)CN1)[C@@H]1CC[C@@H]2CN1C(=O)N2OS(=O)(=O)O [Example 13],2,2,2,1,2,4,> 32,> 32,1,2,8,> 32,1,2,2,–
O=C(NOC[C@H]1C[C@H](n2ccnn2)CN1)[C@@H]1CC[C@@H]2CN1C(=O)N2OS(=O)(=O)O [Example 14],4,4,2,2,4,4,> 32,> 32,2,4,8,> 32,2,4,4,–
O=C(NNC(=O)[C@@H]1CC[C@@H]2CN1C(=O)N2OS(=O)(=O)O)[C@@H]1C[C@@H](n2cccn2)CN1 [Example 32],–,–,–,–,–,–,–,–,–,–,–,–,–,–,–,MIC (E. coli 13351; E. coli 13351): 4 µg/mL; MIC (K. pneumoniae H 522; K. pneumoniae H 522): 8 µg/mL; MIC (E. coli M 50; E. coli M 50): 4 µg/mL; MIC (E. coli M 138; E. coli M 138): 4 µg/mL; MIC (E. coli 13352; E. coli 13352): 4 µg/mL; MIC (E. coli 7 MP): 16 µg/mL; MIC (P. mirabilis S 137B): >32 µg/mL; MIC ([1]; compound tested alone): >32 µg/mL; MIC (E. coli 13353; E. coli 13353): 4 µg/mL; MIC (K. pneumoniae H 523; K. pneumoniae H 523): 8 µg/mL; MIC (E. coli M 49; E. coli M 49): 32 µg/mL; MIC (E. coli M 36; E. coli M 36): 4 µg/mL; MIC (K. pneumoniae H 521; K. pneumoniae H 521): 8 µg/mL; MIC (K. pneumoniae H 525; K. pneumoniae H 525): 8 µg/mL

# More lines, main results first:
MIC (E. coli 13351; [2]) [µg/mL],MIC (K. pneumoniae H 522; [3]) [µg/mL],MIC (E. coli M 50; [4]) [µg/mL],MIC (E. coli M 138; [5]) [µg/mL],MIC (E. coli 13352; [6]) [µg/mL],MIC (E. coli 7 MP; [7]) [µg/mL],MIC (P. mirabilis S 137B; [8]) [µg/mL],"MIC [1, 9] [µg/mL]",MIC (E. coli 13353; [10]) [µg/mL],MIC (K. pneumoniae H 523; [11]) [µg/mL],MIC (E. coli M 49; [12]) [µg/mL],MIC (E. coli H 483; [13]) [µg/mL],MIC (E. coli M 36; [14]) [µg/mL],MIC (K. pneumoniae H 521; [15]) [µg/mL],MIC (K. pneumoniae H 525; [16]) [µg/mL],SMILES,other results
2,4,2,2,2,8,> 32,> 32,2,4,8,> 32,2,4,4,Nc1cn([C@@H]2CN[C@H](CONC(=O)[C@@H]3CC[C@@H]4CN3C(=O)N4OS(=O)(=O)O)C2)cn1 [Example 16],–
4,2,4,8,8,16,> 32,> 32,4,2,16,–,4,2,2,O=C(NNC(=O)[C@@H]1CC[C@@H]2CN1C(=O)N2OS(=O)(=O)O)[C@@H]1C[C@H](n2ccnc2)CN1 [Example 30],–
4,16,8,8,4,16,> 32,> 32,4,16,> 32,–,4,16,8,Cc1nnn([C@@H]2CN[C@H](C(=O)NNC(=O)[C@@H]3CC[C@@H]4CN3C(=O)N4OS(=O)(=O)O)C2)n1 [Example 31],–
4,4,2,4,4,8,> 32,> 32,4,4,16,–,2,8,4,O=C(NNC(=O)[C@@H]1CC[C@@H]2CN1C(=O)N2OS(=O)(=O)O)[C@@H]1C[C@@H](n2ccnc2)CN1 [Example 33],–
